Source: ChEMBL document CHEMBL1201862, “PubChem BioAssay data set” (2004)
Calls of active or inactive are those of the source. No stated cut-off is given here; in the data, actives have a measured IC50 and inactives only a lower limit.

Molecular target: Envelope glycoprotein gp160 (Human immunodeficiency virus 1, UniProt Q6QLK5)
Experiment: cell-free HIV fusion peptide-binding blockers – biochemical, uHTS, fluorescence dequenching, […] (AID 1986)

Chain of Envelope glycoprotein gp160 (Q6QLK5 whole entry, the tested form may be a part): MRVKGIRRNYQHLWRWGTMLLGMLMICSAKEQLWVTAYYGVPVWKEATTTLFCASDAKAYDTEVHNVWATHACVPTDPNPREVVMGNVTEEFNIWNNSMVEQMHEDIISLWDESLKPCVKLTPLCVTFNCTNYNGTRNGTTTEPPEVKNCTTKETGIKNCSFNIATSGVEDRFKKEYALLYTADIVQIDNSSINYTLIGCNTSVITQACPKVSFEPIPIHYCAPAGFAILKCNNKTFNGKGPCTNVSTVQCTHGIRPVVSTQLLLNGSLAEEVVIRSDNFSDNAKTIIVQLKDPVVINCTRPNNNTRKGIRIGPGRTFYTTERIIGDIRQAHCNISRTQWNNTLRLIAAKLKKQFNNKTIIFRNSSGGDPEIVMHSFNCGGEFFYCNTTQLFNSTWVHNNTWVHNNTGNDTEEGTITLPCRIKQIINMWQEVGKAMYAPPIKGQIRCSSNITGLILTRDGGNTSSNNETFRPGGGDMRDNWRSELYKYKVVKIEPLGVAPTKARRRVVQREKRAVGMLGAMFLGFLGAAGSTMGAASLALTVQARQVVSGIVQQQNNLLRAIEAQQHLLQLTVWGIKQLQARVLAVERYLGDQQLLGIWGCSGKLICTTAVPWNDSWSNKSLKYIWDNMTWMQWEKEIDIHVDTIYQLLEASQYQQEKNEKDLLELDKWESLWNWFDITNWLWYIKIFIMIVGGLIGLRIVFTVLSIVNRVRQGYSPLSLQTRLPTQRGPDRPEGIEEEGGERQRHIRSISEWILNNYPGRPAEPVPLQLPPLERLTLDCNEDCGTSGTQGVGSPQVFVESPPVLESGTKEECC

Row | Structure (SMILES) | IC50
1 | COc1cc(C(=O)Nc2scc(-c3ccc(Br)cc3)c2C(=O)O)cc(OC)c1OC | 33.2 µM (active)
2 | CC(/C=C1\SC(=S)N(C(C(=O)O)c2ccccc2)C1=O)=C\c1ccccc1 (centres undefined) | 46 µM (active)
3 | O=C(N/N=C/c1cc(Br)c(O)c(Br)c1)c1cc2c(ccc3ccccc32)o1 | 15 µM (active)
4 | COc1ccc(C(=O)Oc2ccc(/C=N/Nc3ccc(Cl)c(C(=O)O)c3)cc2OC)cc1 | 19.3 µM (active)
